Results from a melting point compilation (Tetko et al.; mined from patent text by program, amines drawn as free bases though some values may be those of a salt).

melting point | Compound
192 to 193 °C | COc1ccc(C(=O)c2cccc(Cc3ccc(=O)[nH]n3)c2Cl)cc1
93 to 94 °C | COc1ccc2c(c1)CCC1C2CCC2(C)C(NCCCCCCN)CCC12 (stereo not drawn)
79 to 83 °C | CC(C)(C)OC(=O)Nc1ccc(-c2ccc(OCc3ccccc3)nc2)cc1NC(=O)CC(=O)c1cccc(-n2ccnc2)c1
139 to 141 °C | N#Cc1c(CF)nn(-c2c(Cl)cc(C(F)(F)F)cc2Cl)c1N
200 to 202 °C | COc1ccn(-c2nc(C)c(C(=O)NCc3cccnc3)s2)c(=O)c1
149 to 150 °C | COP(=O)(Cc1cc(C(C)(C)C)c(O)c(C(C)(C)C)c1)C1CCCCC1 (stereo not drawn)
196 to 198 °C | CCOC(=O)C1CC2=C(CO1)C(=O)c1cc3ccccc3c(OC(C)=O)c1C2=O (stereo not drawn)
144 °C | COC(=O)C1Oc2cc(Cl)ccc2C(C)(c2ccccc2)O1 (stereo not drawn)
196 to 210 °C | COc1cc2c(cc1OC)-c1c(O)c(OC)cc3c1C(C2)CN(C)C3 (stereo not drawn)
171 to 175 °C | COc1c(O)cc(C(C)(C)C)c(O)c1C(=O)Nc1ccc(S(=O)(=O)C(F)(F)F)cc1Cl
161 °C | CCOC(=O)c1ccc(Nc2c(NCc3ccccc3)cc(C(=O)OCC)cc2S(N)(=O)=O)cc1
69.5 to 70.5 °C | CC(C)OP(C)(=O)COS(=O)(=O)c1c(Cl)cccc1C(C)C (stereo not drawn)
188 to 190 °C | CC1NC(=O)Nc2ccc(C(=O)CBr)cc21 (stereo not drawn)
220 to 221 °C | CC(C)Cc1ccc(-c2cc(C(=O)O)cc(-c3ccc(Cl)cc3)n2)cc1
64 to 65 °C | CC(=O)N[C@@H]1[C@H](O)CC(C(=O)O)=C[C@H]1OC(C)C
127 to 128 °C | O=C1CCc2c1ccc1c2CCc2ccccc2-1
> 230 °C | Cc1ccc(-c2ccccc2C(=O)Nc2ccc(C(=O)N3CCc4sc(NC(=N)N)nc4-c4ccccc43)cc2)cc1
128 to 131 °C | COc1ccc(-c2cc(CN)c(=O)n(Cc3ccc(Cl)cc3)n2)cc1F
154 to 155 °C | COc1cccc([C@H]2O[C@H](CC(=O)Nc3cc(CCC(=O)O)ccc3C)C(=O)N(CC(C)(C)CO)c3ccc(Cl)cc32)c1OC
118 to 119 °C | CC(=O)C(C)(C)N1COC(C)=C(c2ccccc2)C1=O

melting point | Compound
205 to 209 °C | CC(C)(C)OC(=O)Nc1ccc(-c2ncn(-c3ccc(OC(F)(F)C(F)(F)F)cc3)n2)cc1
85 to 87 °C | COC(=O)c1sc(-c2ccccc2)c(Br)c1O
90 to 92 °C | Cc1cc(Oc2ccc([N+](=O)[O-])cc2C(F)(F)F)nn1C(=O)NC(C)C
194 to 197 °C | CC(C)(C)OC(=O)CN1C(=O)C(N2C(=O)c3ccccc3C2=O)CCc2ccccc21 (stereo not drawn)
145 °C | O=C(c1ccc(O)c(Cl)c1)c1ccc(Cl)cc1Cl
114 to 116 °C | c1ccc(Oc2ccc(NC3=NN(c4ccccc4)CC3)cc2)cc1
229 to 232 °C | O=C(O)[C@@H]1Cc2ccccc2C[C@H]1C(=O)O (relative stereo)
138 to 140 °C | CCc1[nH]n(C2CCCC2)c2nc(COS(C)(=O)=O)nc(=O)c1-2
113 to 114 °C | CC(C)CC1(C(CC(C)N2C(=O)c3ccccc3C2=O)C(=O)NO)CCN(CCc2ccccc2)C1=O (stereo not drawn)
228 to 230 °C | CC12CCC(=O)C=C1CCC1C3CC(OCC(=O)c4ccccc4)C(O)(C(=O)CO)C3(C)CC(O)C12F (stereo not drawn)
281 to 282 °C | COc1cc(OC)c2c(=O)[nH]c(-c3cccc(-c4ccc(S(C)=O)cc4)n3)nc2c1 (stereo not drawn)
122 °C | CCCCCCCc1cn2cc(-c3ccc(O)cc3)nc2s1
147 to 148 °C | COc1cc(Nc2nccc(-c3ccc(NC4CCCCC4O)nc3)n2)cc(OC)c1OC (stereo not drawn)
118 °C | Cc1nn(C)c(F)c1C(=O)Nc1ccccc1C(C)C(O)C(C)C (stereo not drawn)
107 to 111 °C | CC1Cc2cc(NC(=O)OCc3ccccc3)ccc2N1C(=O)OCc1ccccc1 (stereo not drawn)
172 to 173 °C | COC(=O)c1c(C(=O)OC)c2sc3ccccc3n2c1-c1ccc(Cl)cc1
233 to 235 °C | Cc1nc(-c2ccc(SC(C)C)c([N+](=O)[O-])c2)sc1C(=O)O
236 °C | CC1=C(C(=O)N(C)C)C(c2ccccc2)C(C(N)=O)=C(N)N1 (stereo not drawn)
225 °C | CS(=O)(=O)c1ccc(-c2oc3ccccc3c(=O)c2-c2cccc(F)c2)cc1
178 to 179 °C | Cc1ccccc1CC(=NC#N)NC(NC(=O)Cc1ccc(F)c(F)c1)C(C)(C)C (stereo not drawn)

Second part, the compound before the results:

Compound | melting point
CCNC(=O)N1N=C(c2ccc([N+](=O)[O-])cc2)c2cc(Cl)ccc2CC1C (stereo not drawn) | 170 to 172 °C
O=c1oc2ccccc2c(O)c1C1CC(c2ccc(Oc3ccc(-c4ccccc4)cc3)cc2)Cc2ccccc21 (stereo not drawn) | 124 to 127 °C
O=C(O)CCc1ccc(CCNC(=O)c2ccccc2)cc1 | 164 to 165 °C
CSc1nc(Cl)c(Cl)nc1Cl | 45 to 47 °C
ClC(=NNc1ccc(Br)cc1)c1ccc(Cl)cc1 | 142 to 144 °C
CCN1CCN(c2ccc(C(=O)NCCCCCCCCCCCCO[N+](=O)[O-])cn2)CC1 | 71 to 72 °C
CN(Cc1csc(N)c1C(=O)c1ccc(Cl)cc1)c1ccccc1 | 129 to 131 °C
O=C(O)c1ccc2c(c1)C(C(Cl)Cl)OC(C(Cl)(Cl)Cl)O2 (stereo not drawn) | 209 °C
COC(=O)C=C1C[N+]([O-])=C(c2ccccc2)c2cc(Cl)ccc2N1 | 215 to 216 °C
O=C1NC(=O)c2cc(CCCCOc3ccccc3)ccc21 | 102 to 103 °C
O=C(O)COc1cccc2c(CC(O)CCC(c3ccccc3)c3ccccc3)coc12 (stereo not drawn) | 155 to 157 °C
NS(=O)(=O)c1ccc(NC(=O)Nc2cccc([N+](=O)[O-])c2)cc1 | 246 to 248 °C
CCC1NCCc2ccc(NC(=N)c3cccs3)cc21 (stereo not drawn) | 142 to 144 °C
CCCCCCCCOC(=O)c1nc(Cl)c(Cl)nc1N | 85 °C
CC(c1ccc(OCCC2OCCCO2)cc1)(c1ccc(OCCC2OCCCO2)cc1)c1ccc(OCCC2OCCCO2)cc1 | 101 °C
O=C(N[C@H](Cc1cccc(OC(F)(F)C(F)F)c1)[C@@H](O)c1ccc(F)nc1)c1ccc(F)c2ccccc12 (racemic) | 148 to 149 °C
Cc1ccc(S(=O)(=O)ON=C(C#N)c2ccccc2)cc1 | 131 to 132 °C
COC(=O)C(CC(C)C)NC(=O)C(CC(=O)c1ccccc1)Cc1ccccc1 (stereo not drawn) | 81 to 83 °C
ClCCCC1(c2ccccc2)OCCO1 | 54 to 55.5 °C
CCCCCCC(CO)n1cnc(C(N)=O)c1 (stereo not drawn) | 97.5 to 100 °C
CCCCCCCC(=O)c1ccc(CCC(CC)(CCOC(C)=O)NC(C)=O)cc1 (stereo not drawn) | 66 to 69 °C
Cn1c(SCCO)nnc1SCCO | 87 to 88 °C
C=C(C(=O)O)c1ccc(-c2ccccc2)c(F)c1 | 169 to 172 °C
O=C1c2c(Cl)cccc2-n2cnc(-c3nc(CN4Cc5ccccc5C4)no3)c2[C@@H]2CCN12 | 170 to 175 °C
CC(=O)NCCCCC(NC(C)=O)C(=O)O (racemic) | 138 to 139 °C
O=C(c1ccc(CBr)cc1)c1ccc([N+](=O)[O-])cc1 | 113 °C
COC(=O)C(=O)c1ccc(Cl)cc1 | 56 to 57 °C
O=C(Nc1cccc(S(=O)(=O)NCc2ccncc2)c1)c1cnn2c(C(F)(F)F)cc(-c3ccc(C(F)(F)F)cc3)nc12 | 251 °C
